{"source": "patent US12447198B2", "about": "“Peptides and fragments for treating diabetes and associated metabolic diseases” (Betavive Ltd., priority 2021, dated 2025)", "key": {"STZ-treated mice [1]": {"tested_on": "STZ-treated mice", "assay": "Serum insulin and c-peptide levels four weeks after IGF-2 treatment", "format": "in vivo, mouse", "settings": "four weeks post treatment", "description": "Fasting blood glucose levels (mg/dL) were determined using the Accu-Chek Performa glucometer (Roche Diagnostics, Mannheim, Germany). After approximately two weeks of stable hyperglycemia, C57BL/6 STZ mice received exogenous injections of recombinant human IGF-2 (0.3-12 mg/kg/day injection) intraperitoneally for 5-10 consecutive days. During post-treatment follow-up period and upon termination, mice were tested for: fasting glucose, body weight, glucose tolerance test (IPGTT), serum C-peptide level, serum insulin level, and full blood and histological analysis (CBC, Chemistry, Insulin IHC and H&E).\nC-peptide is a biomarker used to assess pancreatic beta cell function and is normally produced in equimolar amounts to endogenous insulin. Leighton et al., A Practical Review of C-Peptide Testing in Diabetes, Diabetes Ther. 2017 June; 8 (3): 475-487."}, "[2]": {"assay": "Safety/toxicity: pathology of blood samples and tissue samples from thirty organs", "format": "in vivo", "settings": "end of 10 days of treatment, 24 days after termination, and 100 days after termination of 30 days of treatment"}, "STZ-treated mouse islets": {"tested_on": "STZ-treated mouse islets", "assay": "MTT viability of STZ-treated mouse islets", "format": "cell-based", "settings": "increasing concentrations", "excerpt": "Yellow dye MTT is converted to a purple dye by mitochondrial reductase in viable cells. Therefore, the amount of purple dye present determined by measuring optical density of cells at 570 nm serves as a measurement of cell viability."}, "STZ-treated mice [3]": {"tested_on": "STZ-treated mice", "assay": "Short term effects of a single IGF-2 injection on glucose and IGF-2 levels, 240 minute time course", "format": "in vivo, mouse", "description": "More specifically, the top panel illustrates the drop in glucose blood levels in three STZ-treated mice after receiving a 800 μg/kg/day dose of IGF-2 over a 240 minute time course. […] IGF-2 is part of a complex system comprising IGF-1 and IGF-2 along with binding proteins, proteases and other interacting molecules. […] Normoglycemia is maintained while total serum IGF-2 is reduced to very low levels. […] Without being bound by this theory, it is believed that a slow release of IGF-2 from a serum complex can maintain normal blood glucose levels."}, "NOD mice [4]": {"tested_on": "NOD mice", "assay": "Incidence of spontaneous autoimmune type 1 diabetes / normoglycemia in NOD mice", "format": "in vivo, mouse", "description": "Non-Obese Diabetic (NOD) mice are a polygenic model for spontaneous autoimmune type 1 diabetes (T1D). NOD mice have an elevated risk for development of autoimmune type 1 diabetes. Thus, NOD mice were used to determine whether treatment IGF-2 reduces spontaneous development of type 1 diabetes.\nIn this experiment, one group of NOD mice (right panel) was injected with 3000 μg/kg of IGF-2 on each of 76 consecutive days, and a second group of NOD mice (left panel) was injected with saline. […] More specifically, at the end of the 76 days of treatment, only two of the treated mice had developed high glucose levels.\nFIG. 30A depicts how many NOD mice have developed autoimmune type I diabetes during an initial 66 days of treatment with IGF-2, and at various intervals post-treatment. In this experiment, one group of NOD mice was injected with 3000 μg/kg of IGF-2 on each of 66 consecutive days, and a second group of NOD mice was injected with saline.\nIn one exemplary experiment, NOD mice were treated with a 3000 μg/kg daily doses of IGF-2 for 150 days. ⅘ of the treated mice maintained normoglycemia compared to ¼ of the control mice. In another exemplary experiment, NOD mice were treated with a 3000 μg/kg daily dose of IGF-2 for 75 days with follow-up glucose measurements taken for an additional 90 days (during which IGF-2 was not administered). ⅝ of the treated mice maintained normoglycemia compared to 2/11 of the control mice."}, "NOD mice [5]": {"tested_on": "NOD mice", "assay": "Islet cell staining for glucagon and insulin in NOD mice", "format": "in vivo, mouse", "settings": "NOD mice treated with IGF-2 for 13 weeks"}, "STZ-treated mice [6]": {"tested_on": "STZ-treated mice", "assay": "Pancreas histology and insulin immunohistochemical staining of islets", "format": "in vivo, mouse", "description": "FIG. 21 depicts pancreas histology results on STZ-treated mice. […] The non-control mice were treated once a day for 10 days with a 3000 μg/kg dose of IGF-2. The mice were sacrificed on day 35 and pancreas cells were assessed as being insulin positive or negative."}, "db/db mice": {"tested_on": "db/db mice", "assay": "14 hour fasting blood glucose in db/db mice treated with IGF-2", "format": "in vivo, mouse", "description": "db/db mice are bred to have a leptin deficiency, increasing susceptibility of the mice to obesity, insulin resistance, and type 2 diabetes (T2D).\nIn this experiment, one group of db/db mice was injected with 3000 μg/kg/day of IGF-2 for 68 days, a second group of db/db mice was injected with 12000 μg/kg/day of IGF-2 for 66 days, and a third group of db/db mice was injected with saline once a day for 68 days.\nIn one experiment (left panel), one group of db/db mice was injected with a daily dose of 12000 μg/kg of IGF-2 divided in two injections per day for 70 days, while another group of db/db mice was injected with saline. […] In another experiment (right panel), one group of db/db mice was injected with a daily dose of 12000 μg/kg of IGF-2 divided in two injections per day for 35 days, while another group of db/db mice was injected with saline.\nIn one exemplary experiment, db/db mice were treated with a 12,000 μg/kg daily dose for 70 days with 70 days of follow up (during which IGF-2 was not administered). All the treated mice maintained normoglycemia for at least 50 days following treatment. In another exemplary experiment, db/db mice were treated with a 12,000 μg/kg daily dose for 35 days with 35 days of follow up (during which IGF-2 was not administered). All the treated mice maintained normoglycemia for 35 days following treatment."}}}
{"substance": "insulin-like growth factor 2 [IGF-2]", "values": [{"measurement": "increase in c-peptide levels", "setting": "STZ-treated mice [1]; four STZ-treated mice", "value": 12, "unit": "fold"}, {"measurement": "increase of serum insulin compared to STZ treated control mice", "setting": "STZ-treated mice [1]; permanently cured mice", "value": 50, "unit": "%"}, {"measurement": "pathologies related to treatment in blood samples and tissue samples from thirty organs", "setting": "[2]", "value": "No pathologies were identified"}, {"measurement": "mouse islet viability (MTT, optical density at 570 nm)", "setting": "STZ-treated mouse islets", "value": "increased in a dose dependent manner"}, {"measurement": "free IGF-2 levels relative to total IGF-2", "setting": "STZ-treated mice [3]; 800 μg/kg dose, 240 minute time course", "value": "a small fraction of the total IGF-2 concentration"}, {"measurement": "period for which the normal blood glucose level lasts", "setting": "STZ-treated mice [3]; single 800 μg/kg dose intraperitoneally", "value": "over four hours"}, {"measurement": "blood glucose level reached (normal level)", "setting": "STZ-treated mice [3]; single 800 μg/kg dose intraperitoneally, from hyperglycemic levels of 300-500 mg/dl", "value": "100 to 200", "unit": "mg/dL"}, {"measurement": "fraction of the treated mice that maintained normoglycemia", "setting": "NOD mice [4]; 3000 μg/kg daily dose for 75 days, follow-up for an additional 90 days, control 2/11", "value": "⅝"}, {"measurement": "fraction of the treated mice that maintained normoglycemia", "setting": "NOD mice [4]; 3000 μg/kg daily doses for 150 days, control ¼", "value": "⅘"}, {"measurement": "incidence of spontaneous autoimmune type 1 diabetes", "setting": "NOD mice [4]; 3000 μg/kg on each of 66 consecutive days and post-treatment, vs saline control", "value": "significantly reduced"}, {"measurement": "incidence of spontaneous autoimmune attack", "setting": "NOD mice [4]; 3000 μg/kg on each of 76 consecutive days vs saline", "value": "reduced dramatically"}, {"measurement": "number of treated mice that had developed high glucose levels", "setting": "NOD mice [4]; 3000 μg/kg, at the end of the 76 days of treatment", "value": "two"}, {"measurement": "islet cells, histological staining for glucagon and insulin", "setting": "NOD mice [5]", "value": "fully functional islet cells"}, {"measurement": "number of functional beta cells", "setting": "STZ-treated mice [6]; 3000 μg/kg once a day for 10 days, sacrificed on day 35, permanently cured mice", "value": "almost four fold increase"}, {"measurement": "number of cells that test positive for insulin", "setting": "STZ-treated mice [6]; 3000 μg/kg once a day for 10 days, sacrificed on day 35, permanently cured vs non-permanently cured and saline control", "value": "significant increase"}, {"measurement": "level of insulin in pancreas islets as compared to a naïve mouse (immunohistochemical staining)", "setting": "STZ-treated mice [6]; non-permanently cured mouse", "value": "lower level of insulin in its pancreas islets"}, {"measurement": "level of insulin in pancreas islets as compared to a naïve mouse (immunohistochemical staining)", "setting": "STZ-treated mice [6]; permanently cured mouse", "value": "higher level of insulin in its pancreas islets"}, {"measurement": "time following treatment for which all the treated mice maintained normoglycemia", "setting": "db/db mice; 12,000 μg/kg daily dose for 35 days, 35 days of follow up", "value": 35, "unit": "days"}, {"measurement": "time following treatment for which all the treated mice maintained normoglycemia", "setting": "db/db mice; 12,000 μg/kg daily dose for 70 days, 70 days of follow up", "value": "at least 50 days"}, {"measurement": "14 hour fasting blood glucose levels", "setting": "db/db mice; FIG. 25 left panel, 12000 μg/kg daily in two injections per day for 70 days", "value": "reduced blood glucose levels (14 hour fasting blood glucose levels) to a normal range"}, {"measurement": "14 hour fasting blood glucose levels", "setting": "db/db mice; FIG. 25 right panel, 12000 μg/kg daily in two injections per day for 35 days", "value": "reduced blood glucose levels (14 hour fasting blood glucose levels) to a normal range"}, {"measurement": "14 hour fasting blood glucose levels", "setting": "db/db mice; first group of db/db mice (FIG. 23), 3000 μg/kg/day for 68 days", "value": "reduced blood glucose levels (14 hour fasting blood glucose levels) to a normal range"}, {"measurement": "14 hour fasting blood glucose levels", "setting": "db/db mice; first group of db/db mice (FIG. 23), 12000 μg/kg/day for 66 days", "value": "reduced blood glucose levels (14 hour fasting blood glucose levels) to a normal range"}, {"measurement": "14 hour fasting blood glucose levels", "setting": "db/db mice; second group of db/db mice (FIG. 24), 12,000 μg/kg/day, 68 day treatment period", "value": "reduced blood glucose levels (14 hour fasting blood glucose levels) to a normal range"}]}
